Data published in PubChem BioAssay AID1963869 (Molecular Pharmacology Branch, DTP, NCI, 2024).

Test system: KRAS patient-derived spheroids with HUVEC/MSC, viability
Experiment: Anticancer human tumor 323965-272-R-J2-PDC patient-derived pancreatic carcinoma cell line growth inhibition [KRAS2]
Details: for IC50: curve of first compound; for viability, T/C: stronger effect = lower value; active = viability on the fitted dose curve at most 10% of control; inactive = the rest
Summary of the method: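 Combination screen of spheroid viability in tumor-cell co-cultures with endothelial (HUVEC) and mesenchymal stem cell stroma. Each agent was tested in half-log dilutions, topping at clinical Cmax or at 10 microM without a known Cmax.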

[1] = second compound 0.1 µM, first compound 0.0316 µM
[2] = second compound 0.316 µM, first compound 0.0316 µM
[3] = second compound 1 µM, first compound 0.0316 µM
[4] = second compound 3.16 µM, first compound 0.0316 µM
[5] = second compound 10 µM, first compound 0.0316 µM
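Note: spheroids exposed to agents for 7 days.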
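Throughout, for viability, T/C: 100% = DMSO vehicle control viability.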

CC(=O)Nc1cccc(-n2c(=O)n(C3CC3)c(=O)c3c(Nc4ccc(I)cc4F)n(C)c(=O)c(C)c32)c1 + CC1OCC2(CCN(c3cnc(Sc4ccnc(N)c4Cl)c(N)n3)CC2)C1N
0.438 nM: IC50 (second compound 0.316 µM)
< 0.1 nM: IC50 (second compound 1 µM) | IC50 (second compound 3.16 µM) | IC50 (second compound 10 µM)
1.78 nM: IC50 (second compound 0.1 µM)
inactive: viability, T/C (second compound 0.1 µM, first compound 0.0001 µM) 80.7% | viability, T/C (second compound 0.1 µM, first compound 0.000316 µM) 72.3% | viability, T/C (second compound 0.1 µM, first compound 0.001 µM) 56.4% | viability, T/C (second compound 0.1 µM, first compound 0.00316 µM) 41.8% | viability, T/C (second compound 0.1 µM, first compound 0.01 µM) 35% | viability, T/C [1] 25.8% | viability, T/C (second compound 0.316 µM, first compound 0.0001 µM) 63.1% | viability, T/C (second compound 0.316 µM, first compound 0.000316 µM) 53.3% | viability, T/C (second compound 0.316 µM, first compound 0.001 µM) 41.7% | viability, T/C (second compound 0.316 µM, first compound 0.00316 µM) 34.9% | viability, T/C (second compound 0.316 µM, first compound 0.01 µM) 27.1% | viability, T/C [2] 20.4% | viability, T/C (second compound 1 µM, first compound 0.0001 µM) 47.3% | viability, T/C (second compound 1 µM, first compound 0.000316 µM) 40% | viability, T/C (second compound 1 µM, first compound 0.001 µM) 33.6% | viability, T/C (second compound 1 µM, first compound 0.00316 µM) 25.6% | viability, T/C (second compound 1 µM, first compound 0.01 µM) 20.4% | viability, T/C [3] 17.1% | viability, T/C (second compound 3.16 µM, first compound 0.0001 µM) 29% | viability, T/C (second compound 3.16 µM, first compound 0.000316 µM) 27.8% | viability, T/C (second compound 3.16 µM, first compound 0.001 µM) 21.7% | viability, T/C (second compound 3.16 µM, first compound 0.00316 µM) 17.4% | viability, T/C (second compound 3.16 µM, first compound 0.01 µM) 18.8% | viability, T/C [4] 17.8% | viability, T/C (second compound 10 µM, first compound 0.0001 µM) 29% | viability, T/C (second compound 10 µM, first compound 0.000316 µM) 26.3% | viability, T/C (second compound 10 µM, first compound 0.001 µM) 19.7% | viability, T/C (second compound 10 µM, first compound 0.00316 µM) 17.7% | viability, T/C (second compound 10 µM, first compound 0.01 µM) 14.8% | viability, T/C [5] 15.9%

COC(=O)c1ccc2c(C(=Nc3ccc(N(C)C(=O)CN4CCN(C)CC4)cc3)c3ccccc3)c(O)[nH]c2c1 + CC1OCC2(CCN(c3cnc(Sc4ccnc(N)c4Cl)c(N)n3)CC2)C1N
< 31.6 nM: IC50 (second compound 1 µM) | IC50 (second compound 3.16 µM) | IC50 (second compound 10 µM)
inactive: viability, T/C [1] 78.8% | viability, T/C (second compound 0.1 µM, first compound 0.1 µM) 85.7% | viability, T/C (second compound 0.1 µM, first compound 0.316 µM) 81.8% | viability, T/C (second compound 0.1 µM, first compound 1 µM) 76.3% | viability, T/C (second compound 0.1 µM, first compound 3.16 µM) 79.1% | viability, T/C (second compound 0.1 µM, first compound 10 µM) 73.4% | viability, T/C [2] 74.8% | viability, T/C (second compound 0.316 µM, first compound 0.1 µM) 59.2% | viability, T/C (second compound 0.316 µM, first compound 0.316 µM) 61.1% | viability, T/C (second compound 0.316 µM, first compound 1 µM) 65.2% | viability, T/C (second compound 0.316 µM, first compound 3.16 µM) 50% | viability, T/C (second compound 0.316 µM, first compound 10 µM) 45.8% | viability, T/C [3] 45.3% | viability, T/C (second compound 1 µM, first compound 0.1 µM) 47.9% | viability, T/C (second compound 1 µM, first compound 0.316 µM) 53.2% | viability, T/C (second compound 1 µM, first compound 1 µM) 41.6% | viability, T/C (second compound 1 µM, first compound 3.16 µM) 43.9% | viability, T/C (second compound 1 µM, first compound 10 µM) 41.6% | viability, T/C [4] 34.6% | viability, T/C (second compound 3.16 µM, first compound 0.1 µM) 38.7% | viability, T/C (second compound 3.16 µM, first compound 0.316 µM) 35.2% | viability, T/C (second compound 3.16 µM, first compound 1 µM) 36% | viability, T/C (second compound 3.16 µM, first compound 3.16 µM) 31.9% | viability, T/C (second compound 3.16 µM, first compound 10 µM) 33.3% | viability, T/C [5] 31.8% | viability, T/C (second compound 10 µM, first compound 0.1 µM) 30.3% | viability, T/C (second compound 10 µM, first compound 0.316 µM) 29.7% | viability, T/C (second compound 10 µM, first compound 1 µM) 27.5% | viability, T/C (second compound 10 µM, first compound 3.16 µM) 23.4% | viability, T/C (second compound 10 µM, first compound 10 µM) 23.2%
5080 nM: IC50 (second compound 0.316 µM)
> 10000 nM: IC50 (second compound 0.1 µM)
